We go through 47 compounds from patent US20120171126A1, “NOVEL [3,2-c] HETEROARYL STEROIDS AS GLUCOCORTICOID RECEPTOR AGONISTS COMPOSITIONS AND USES THEREOF” (priority 2009, published 2012).

pIC50: −log10 of the molar value. A value given as a limit tells only on which side of the number the result lay.

The assay has as its system IL-8. The assay can be described thus: Glucocorticoid transrepression assay, IL-8 inhibition (TR). The settings on record: Homo sapiens, Table 1, NCl-H292 cells, TNFα 10 ng/ml; for Emax: read-out: IL-8 inhibition (TR) Emax % inhibition. The assay is classed as cell-based. How it is done: Human Lung epithelial cell line NCl-H292 cells were dissociated from stock flask using 0.05% trypsin/0.53 mM EDTA. Cells were suspended in complete medium and counted. Cells were plated in 96-well flat-bottom plates at 20K cells /well in 0.2 ml/well. Plates were incubated for 24-48 hours until cells were between 75-90% confluent. Medium was aspirated and replaced with medium containing various concentrations of steroids or antagonists. After 1 hour incubation at 37°, TNFα (10 ng/ml final concentration in 0.2 ml) was added and the cells incubated overnight. Control wells with and without TNF were included on each plate, as well as wells with TNF in addition to a maximum (10 μM) concentration of dexamethasone. The cell culture medium was sampled and IL-6 and IL-8 cytokine production was measured using the MSD Multi-Spot immunoassay.

As usually defined, the pIC50 is the negative decadic logarithm of the IC50, by convention in mol/L. As a reminder, the Emax is the size of the effect at its maximum, as opposed to the concentration needed.

Consider `Cc1ccnc(SCC(=O)[C@@]2(O)CCC3C4CCC5=Cc6c(cnn6CCC#N)CC5(C)C4[C@@H](O)CC32C)n1` (stereo partly drawn) [Compound 59], for which the negative logarithm of the IC50 (pIC50) was 6.40 to 7.18 and the maximal response (Emax) is 60 to 70%.

In the case of `Cc1cccc(SCC(=O)[C@@]2(O)CCC3C4CCC5=Cc6c(cnn6CCC#N)CC5(C)C4[C@@H](O)CC32C)n1` (stereo partly drawn) [Compound 61], the negative logarithm of the IC50 (pIC50) was 6.40 to 7.18 and the maximum response (Emax) fell in the range of 70 to 80%. `CC12Cc3cnn(C(C)(C)C)c3C=C1CCC1C2[C@@H](O)CC2(C)C1CC[C@]2(O)C(=O)CSc1nc2ccccc2s1` (stereo partly drawn) [Compound 62]: the Emax was less than 60%.

Take `Cn1c(SCC(=O)[C@@]2(O)CCC3C4CCC5=Cc6c(cnn6C(C)(C)C)CC5(C)C4[C@@H](O)CC32C)nc2ccccc21` (stereo partly drawn) [Compound 63]: the maximum response (Emax) is less than 60%. In the case of `CC12Cc3cnn(C(C)(C)C)c3C=C1CCC1C2[C@@H](O)CC2(C)C1CC[C@]2(O)C(=O)CSc1nc2cccnc2s1` (stereo partly drawn) [Compound 64], the Emax was less than 60%. For the compound `CC12Cc3cnn(C(C)(C)C)c3C=C1CCC1C2[C@@H](O)CC2(C)C1CC[C@]2(O)C(=O)CSc1nc2ncccc2o1` (stereo partly drawn) [Compound 65], the maximal response (Emax) was less than 60%. Same read-out and setting: next, `CC12Cc3cnn(C(C)(C)C)c3C=C1CCC1C2[C@@H](O)CC2(C)C1CC[C@]2(O)C(=O)CSc1ccccn1` (stereo partly drawn) [Compound 66]: less than 60%; `CC12Cc3cnn(C(C)(C)C)c3C=C1CCC1C2[C@@H](O)CC2(C)C1CC[C@]2(O)C(=O)CSc1ccc2ccccc2n1` (stereo partly drawn) [Compound 67]: less than 60%; `CC12Cc3cnn(C(C)(C)C)c3C=C1CCC1C2[C@@H](O)CC2(C)C1CC[C@]2(O)C(=O)CSc1nc2ccccc2[nH]1` (stereo partly drawn) [Compound 68]: less than 60%. Take `CC12Cc3cnn(C4CCOCC4)c3C=C1CCC1C2[C@@H](O)CC2(C)C1CC[C@]2(O)C(=O)CSc1nc2ccccc2s1` (stereo partly drawn) [Compound 69]: the pIC50 is 6.40 to 7.18 and the Emax was 70 to 80%. For `Cn1c(SCC(=O)[C@@]2(O)CCC3C4CCC5=Cc6c(cnn6C6CCOCC6)CC5(C)C4[C@@H](O)CC32C)nc2ccccc21` (stereo partly drawn) [Compound 70], in that order: 7.19 to 7.68 and greater than 80%. In the same order, the values of `CC12Cc3cnn(C4CCOCC4)c3C=C1CCC1C2[C@@H](O)CC2(C)C1CC[C@]2(O)C(=O)CSc1nc2ncccc2o1` (stereo partly drawn) [Compound 72] are 7.19 to 7.68 and greater than 80%. Take `CC12Cc3cnn(C4CCOCC4)c3C=C1CCC1C2[C@@H](O)CC2(C)C1CC[C@]2(O)C(=O)CSc1ccccn1` (stereo partly drawn) [Compound 73]: the pIC50 was 7.70 to 10.22 and the maximal effect (Emax) was greater than 80%. Regarding `CC12Cc3cnn(C4CCOCC4)c3C=C1CCC1C2[C@@H](O)CC2(C)C1CC[C@]2(O)C(=O)CSc1nc2ccccc2[nH]1` (stereo partly drawn) [Compound 75], the Emax was less than 60%. Same read-out and setting: next, `Cc1ccccc1-n1ncc2c1C=C1CCC3C([C@@H](O)CC4(C)C3CC[C@]4(O)C(=O)CSc3nc4ccccc4s3)C1(C)C2` (stereo partly drawn) [Compound 76]: less than 60%; `Cc1ccccc1-n1ncc2c1C=C1CCC3C([C@@H](O)CC4(C)C3CC[C@]4(O)C(=O)CSc3nc4ccccc4n3C)C1(C)C2` (stereo partly drawn) [Compound 77]: less than 60%. Same read-out and setting: next, `Cc1ccccc1-n1ncc2c1C=C1CCC3C([C@@H](O)CC4(C)C3CC[C@]4(O)C(=O)CSc3nc4cccnc4s3)C1(C)C2` (stereo partly drawn) [Compound 78]: less than 60%. As for `Cc1ccccc1-n1ncc2c1C=C1CCC3C([C@@H](O)CC4(C)C3CC[C@]4(O)C(=O)CSc3nc4ncccc4o3)C1(C)C2` (stereo partly drawn) [Compound 79], the maximal effect (Emax) is less than 60%.

Regarding `Cc1ccccc1-n1ncc2c1C=C1CCC3C([C@@H](O)CC4(C)C3CC[C@]4(O)C(=O)CSc3ccccn3)C1(C)C2` (stereo partly drawn) [Compound 80], the Emax is less than 60%.

As to `Cc1ccccc1-n1ncc2c1C=C1CCC3C([C@@H](O)CC4(C)C3CC[C@]4(O)C(=O)CSc3ccc4ccccc4n3)C1(C)C2` (stereo partly drawn) [Compound 81], the Emax was less than 60%.

In the case of `Cc1ccccc1-n1ncc2c1C=C1CCC3C([C@@H](O)CC4(C)C3CC[C@]4(O)C(=O)CSc3nc4ccccc4[nH]3)C1(C)C2` (stereo partly drawn) [Compound 82], the Emax was less than 60%.

Consider `CC12Cc3cnn(-c4nc5ccccc5[nH]4)c3C=C1CCC1C2[C@@H](O)CC2(C)C1CC[C@]2(O)C(=O)CSc1nc2ccccc2s1` (stereo partly drawn) [Compound 83], for which the Emax is less than 60%. Still for that read-out and setting: in the case of `Cn1c(SCC(=O)[C@@]2(O)CCC3C4CCC5=Cc6c(cnn6-c6nc7ccccc7[nH]6)CC5(C)C4[C@@H](O)CC32C)nc2ccccc21` (stereo partly drawn) [Compound 84] it was less than 60%.

As for `COc1ccc(-n2ncc3c2C=C2CCC4C([C@@H](O)CC5(C)C4CC[C@]5(O)C(=O)CSc4nc5ccccc5s4)C2(C)C3)cc1` (stereo partly drawn) [Compound 85], the pIC50 was 6.40 to 7.18 and the maximal response (Emax) fell in the range of 70 to 80%. For `COc1ccc(-n2ncc3c2C=C2CCC4C([C@@H](O)CC5(C)C4CC[C@]5(O)C(=O)CSc4nc5ccccc5n4C)C2(C)C3)cc1` (stereo partly drawn) [Compound 86], in that order: 6.40 to 7.18 and 70 to 80%. For `COc1ccc(-n2ncc3c2C=C2CCC4C([C@@H](O)CC5(C)C4CC[C@]5(O)C(=O)CSc4nc5cccnc5s4)C2(C)C3)cc1` (stereo partly drawn) [Compound 87], the pIC50 is 6.40 to 7.18 and the Emax lay within 60 to 70%. As to `COc1ccc(-n2ncc3c2C=C2CCC4C([C@@H](O)CC5(C)C4CC[C@]5(O)C(=O)CSc4ccccn4)C2(C)C3)cc1` (stereo partly drawn) [Compound 88], the pIC50 is 6.40 to 7.18 and the Emax lay in the range of 60 to 70%.

On to `COc1ccc(-n2ncc3c2C=C2CCC4C([C@@H](O)CC5(C)C4CC[C@]5(O)C(=O)CSc4ccc5ccccc5n4)C2(C)C3)cc1` (stereo partly drawn) [Compound 89], for which the Emax was less than 60%.

Consider `CC(C)(C)c1ccc(-n2ncc3c2C=C2CCC4C([C@@H](O)CC5(C)C4CC[C@]5(O)C(=O)CSc4nc5ccccc5s4)C2(C)C3)cc1` (stereo partly drawn) [Compound 90], for which the Emax is less than 60%. Turning to `Cn1c(SCC(=O)[C@@]2(O)CCC3C4CCC5=Cc6c(cnn6-c6ccc(C(C)(C)C)cc6)CC5(C)C4[C@@H](O)CC32C)nc2ccccc21` (stereo partly drawn) [Compound 91], the maximal effect (Emax) was less than 60%. The same measure, in the same setting: in the case of `CC(C)(C)c1ccc(-n2ncc3c2C=C2CCC4C([C@@H](O)CC5(C)C4CC[C@]5(O)C(=O)CSc4nc5cccnc5s4)C2(C)C3)cc1` (stereo partly drawn) [Compound 92] it was less than 60%; in that of `CC(C)(C)c1ccc(-n2ncc3c2C=C2CCC4C([C@@H](O)CC5(C)C4CC[C@]5(O)C(=O)CSc4ccccn4)C2(C)C3)cc1` (stereo partly drawn) [Compound 93], less than 60%. As to `CC12Cc3cnn(-c4ccc(F)cc4)c3C=C1CCC1C2[C@@H](O)CC2(C)C1CC[C@]2(O)C(=O)CSc1nc2ccc(O)cc2[nH]1` (stereo partly drawn) [Compound 94], the negative-log IC50 (pIC50) is 7.70 to 10.22 and the Emax was greater than 80%. In the same order, the values of `CC12Cc3cnn(-c4ccc(F)cc4)c3C=C1CCC1C2[C@@H](O)CC2(C)C1CC[C@]2(O)C(=O)CSc1nc(-c2ccccc2)c(-c2ccccc2)o1` (stereo partly drawn) [Compound 96] are 6.40 to 7.18 and greater than 80%.

Take `Cc1ccnc(SCC(=O)[C@@]2(O)CCC3C4CCC5=Cc6c(cnn6-c6ccc(F)cc6)CC5(C)C4[C@@H](O)CC32C)n1` (stereo partly drawn) [Compound 97]: the pIC50 was 7.70 to 10.22 and the Emax was greater than 80%. With `CC12Cc3cnn(-c4ccc(F)cc4)c3C=C1CCC1C2[C@@H](O)CC2(C)C1CC[C@]2(O)C(=O)CSc1ncnc2ccccc12` (stereo partly drawn) [Compound 98], the pIC50 was 7.70 to 10.22 and the maximum response (Emax) was greater than 80%. For `CC12Cc3cnn(-c4ccc(F)cc4)c3C=C1CCC1C2[C@@H](O)CC2(C)C1CC[C@]2(OC(=O)c1ccco1)C(=O)CSc1nc2ncccc2o1` (stereo partly drawn) [Compound 99], in that order: 7.70 to 10.22 and greater than 80%. In the same order, the values of `Cn1nnnc1SCC(=O)[C@@]1(O)CCC2C3CCC4=Cc5c(cnn5-c5ccc(F)cc5)CC4(C)C3[C@@H](O)CC21C` (stereo partly drawn) [Compound 100] are 7.70 to 10.22 and greater than 80%.

On to `Cc1cc(C)nc(SCC(=O)[C@@]2(O)CCC3C4CCC5=Cc6c(cnn6-c6ccc(F)cc6)CC5(C)C4[C@@H](O)CC32C)n1` (stereo partly drawn) [Compound 101], for which the negative logarithm of the IC50 (pIC50) was 7.70 to 10.22 and the Emax was greater than 80%. For `CC12Cc3cnn(-c4ccc(F)cc4)c3C=C1CCC1C2[C@@H](O)CC2(C)C1CC[C@]2(O)C(=O)CSc1nc2ccc(N)cc2s1` (stereo partly drawn) [Compound 102], in that order: 7.70 to 10.22 and greater than 80%. For `COc1ccc2nc(SCC(=O)[C@@]3(O)CCC4C5CCC6=Cc7c(cnn7-c7ccc(F)cc7)CC6(C)C5[C@@H](O)CC43C)sc2c1` (stereo partly drawn) [Compound 103], in that order: 7.70 to 10.22 and greater than 80%. For `CC12Cc3cnn(-c4ccc(F)cc4)c3C=C1CCC1C2[C@@H](O)CC2(C)C1CC[C@]2(O)C(=O)COc1nc2ccccc2o1` (stereo partly drawn) [Compound 104], in that order: 7.70 to 10.22 and greater than 80%. Turning to `CC12Cc3cnn(-c4ccc(F)cc4)c3C=C1CCC1C2[C@@H](O)CC2(C)C1CC[C@]2(O)C(=O)COc1nc2ccccc2[nH]1` (stereo partly drawn) [Compound 111], the negative-log IC50 (pIC50) is 7.70 to 10.22 and the Emax is greater than 80%.

For `Cn1c(OCC(=O)[C@@]2(O)CCC3C4CCC5=Cc6c(cnn6-c6ccc(F)cc6)CC5(C)C4[C@@H](O)CC32C)nc2ccccc21` (stereo partly drawn) [Compound 112], the pIC50 is 7.70 to 10.22 and the maximum response (Emax) is greater than 80%. Take `CC12Cc3cnn(-c4ccc(F)cc4)c3C=C1CCC1C2[C@@H](O)CC2(C)C1CC[C@]2(O)C(=O)COc1nccc2ccccc12` (stereo partly drawn) [Compound 114]: the negative logarithm of the IC50 (pIC50) is 7.70 to 10.22 and the Emax was greater than 80%. For `CC12Cc3cnn(-c4ccccc4)c3C=C1CCC1C2[C@@H](O)CC2(C)C1CC[C@]2(O)C(=O)COc1ccc2ccccc2c1` (stereo partly drawn) [Compound 117], in that order: 7.70 to 10.22 and greater than 80%. With `CC12Cc3cnn(-c4ccccc4)c3C=C1CCC1C2[C@@H](O)CC2(C)C1CC[C@]2(O)C(=O)COc1nc2ccccc2[nH]1` (stereo partly drawn) [Compound 118], the pIC50 is 7.70 to 10.22 and the maximum response (Emax) was greater than 80%.
